Several values for one entry are separate records, joined by “and”; a condition that tells them apart may be missing. Equal values may be shown once. Inconclusive results and toxic doses are left out. The calls were made as follows: active = survival T/C of 150% or more; inactive = T/C below 125% in these data.
Tested on: BDF1 mice, B16 melanoma ip, median survival T/C
Experiment: NCI In Vivo Anticancer Drug Screen. Data for tumor model B16 Melanoma (intraperitoneal) in B6D2F1 (BDF1) mice
Conditions: endpoint: median survival time, higher = longer survival
Method in brief: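 Survival or tumor size is measured after treatment of tumor-bearing mice and normalised to the vehicle-treated control group.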

[1] = dose: 100.0 mg/kg/injection, schedule: Q01DX009 (ip), vehicle: Klucel (hydroxypropylcellulose) (HPC)
[2] = dose: 200.0 mg/kg/injection, schedule: Q01DX009 (ip), vehicle: Klucel (hydroxypropylcellulose) (HPC)

Measured: T/C

C(/C=C/C=C/N1CCCCC1)=[N+]1CCCCC1
inactive: dose: 0.13 mg/kg/injection, schedule: Q01DX009 (ip), vehicle: saline 96 % of control | dose: 0.25 mg/kg/injection, schedule: Q01DX009 (ip), vehicle: saline 107 % of control | dose: 0.5 mg/kg/injection, schedule: Q01DX009 (ip), vehicle: saline 101 % of control | dose: 1.0 mg/kg/injection, schedule: Q01DX009 (ip), vehicle: saline 105 % of control

CS(=O)(=O)OCCN(CCOS(C)(=O)=O)c1ccc(/C=N/Nc2ncnc3nc[nH]c23)cc1
inactive: dose: 25.0 mg/kg/injection, schedule: Q01DX009 (ip), vehicle: saline with Tween-80 115 % of control | dose: 50.0 mg/kg/injection, schedule: Q01DX009 (ip), vehicle: saline with Tween-80 110 % of control | dose: 100.0 mg/kg/injection, schedule: Q01DX009 (ip), vehicle: saline with Tween-80 105 % of control and 113 % of control | dose: 400.0 mg/kg/injection, schedule: Q04DX003 (ip), vehicle: saline with Tween-80 91 % of control and 121 % of control

CC(=O)[C@]1(O)Cc2c(O)c3c(c(O)c2[C@@H](OC2CC(N)C(O)C(C)O2)C1)C(=O)c1c(O)cccc1C3=O (stereo not given in full)
inactive: dose: 0.04 mg/kg/injection, schedule: Q01DX001 (ip), vehicle: water 105 % of control | dose: 0.08 mg/kg/injection, schedule: Q01DX001 (ip), vehicle: water 113 % of control and 124 % of control | dose: 0.16 mg/kg/injection, schedule: Q01DX001 (ip), vehicle: water 124 % of control | dose: 0.38 mg/kg/injection, schedule: Q01DX001 (ip), vehicle: water 124 % of control

COC(=O)c1nc(-c2ccc3c(n2)C(=O)C(N)=C(OC)C3=O)c(N)c(-c2ccc(OC)c(OC)c2O)c1C
inactive: dose: 0.1 mg/kg/injection, schedule: Q01DX009 (ip), vehicle: saline with Tween-80 95 % of control | dose: 0.2 mg/kg/injection, schedule: Q01DX009 (ip), vehicle: saline with Tween-80 97 % of control | dose: 0.4 mg/kg/injection, schedule: Q01DX009 (ip), vehicle: saline with Tween-80 105 % of control | dose: 0.8 mg/kg/injection, schedule: Q01DX009 (ip), vehicle: saline with Tween-80 104 % of control

Cc1ccc(C)c(C2NC(=O)c3ccccc3N2)c1 (stereo not given)
inactive: [1] 121 % of control | [2] 115 % of control

CCCCN=[N+]=[N-]
inactive: dose: 25.0 mg/kg/injection, schedule: Q01DX009 (ip), vehicle: water 104 % of control | dose: 50.0 mg/kg/injection, schedule: Q01DX009 (ip), vehicle: water 98 % of control | dose: 100.0 mg/kg/injection, schedule: Q01DX009 (ip), vehicle: water 100 % of control | dose: 200.0 mg/kg/injection, schedule: Q01DX009 (ip), vehicle: water 98 % of control

COc1ccccc1NC(=O)Nc1cccc(C)c1C
inactive: [1] 87 % of control | [2] 86 % of control

[Br][Ga]([Br])[Br]
inactive: dose: 12.5 mg/kg/injection, schedule: Q01DX009 (ip), vehicle: saline 101 % of control | dose: 25.0 mg/kg/injection, schedule: Q01DX009 (ip), vehicle: saline 96 % of control | dose: 50.0 mg/kg/injection, schedule: Q01DX009 (ip), vehicle: saline 96 % of control

COc1cccc2c1C(=O)c1c(O)c3c(c(O)c1C2=O)C[C@@](O)(/C(C)=N/NC(=O)c1ccc(S(N)(=O)=O)cc1)C[C@@H]3OC1CC(N)C(O)C(C)O1 (stereo not given in full)
active: dose: 3.13 mg/kg/injection, schedule: Q01DX009 (ip), vehicle: water 190 % of control | dose: 6.25 mg/kg/injection, schedule: Q01DX009 (ip), vehicle: water 258 % of control | dose: 12.5 mg/kg/injection, schedule: Q01DX009 (ip), vehicle: water 259 % of control

Source: PubChem BioAssay AID192 (DTP/NCI, 2004)
